Test results: US10406243B2, “Methods of treatment comprising a polyrotaxane and medicinal composition” (National University Corporation Tokyo Medical and Dental …, priority 2013, dated 2019)

How the values were obtained:
[1] = system: NPC1 cells (human dermal fibroblasts derived from a Niemann-Pick type C disease patient); test: Accumulation of cholesterol, filipin staining observed by confocal microscope (Test Example 2); type: cell-based; settings: equivalent to 100 μM of cyclodextrin, 24 hours
Method: Normal human dermal fibroblasts (hereinafter, referred to as “NHDF” or “NHDF cells”; obtained from Coriell Institute; number: GM05659) and human dermal fibroblasts derived from a Niemann-Pick type C disease patient (hereinafter, referred to as “NPC1” or “NPC1 cells”; obtained from Coriell Institute; number: GM03123) were used as follows to examine the cellular accumulation of cholesterol.
After the incubation, the cells were fixed with 4% paraformaldehyde, and following the addition of filipin (Polysciences) in PBS adjusted to 100 μg/mL, were allowed to stand for 45 minutes at room temperature. After washing the cells three times with PBS, the localization of cholesterol was observed by using a confocal laser scanning microscope, FluoView FV10i (Olympus). Moreover, the amount of intracellular cholesterol accumulation was determined.
In each image, the part shown in white indicates cholesterol. The amount added of each sample is equivalent to 100 μM of cyclodextrin.

[2] = system: NPC1 cells (human dermal fibroblasts derived from a Niemann-Pick type C disease patient); test: Quantification of intracellular cholesterol accumulation, Amplex Red Cholesterol Assay Kit (Test Example 2); type: cell-based; settings: equivalent to 100 μM of cyclodextrin, 24 hours
Method: The quantification of the amount of intracellular cholesterol accumulation was carried out as follows.
After the incubation the cells were lysed with cell lysis buffer to obtain cell lysates, and the intracellular cholesterol was determined by Amplex Red Cholesterol Assay Kit (Invitrogen) while the total cellular protein content was determined with Micro BCA Protein Assay Kit (Thermo Fisher Scientific). The total intracellular cholesterol content is shown as total cholesterol content (nmol)/total protein content (mg).
In FIG. 9, in order from the left, the results on the following are shown: “the case where NPC1 cells were used and none of the samples were added (non-treated)”, “the case where NPC1 cells were used and HP-β-CD was added as a sample (HP-β-CD added)”, “the case where NPC1 cells were used and DM-β-CD was added as a sample (DM-β-CD added)”, “the case where NPC1 cells were used and HE-SS-PRX was added as a sample (HE-SS-PRX added)”, “the case where NPC1 cells were used and HE-ace-PRX was added as a sample (HE-ace-PRX added)”, “the case where NPC1 cells were used and HE-PRX was added as a sample (HE-PRX added)”, and “the case where NPC1 cells were used and HE-SS-PRX was added as a sample (HE-SS-PRX added)”, and “the case where NHDF cells were used and none of the samples were added (non-treated)”. The amount added of each sample is equivalent to 100 μM of cyclodextrin.

NPC1 cells [3] = test: Cholesterol removal effect, dose-response (Test Examples 5, 6, 7-1); type: cell-based, human; settings: 24 hours, concentration as cyclodextrin
Method: Then, the cells were washed twice with phosphate-buffered solution, and 0.25% trypsin-EDTA solution (Gibco) was added to each well to peel the cells. The cells were collected into a 1.5 mL tube, and washed twice with phosphate buffered saline. Then, cell lysis solution (including 50 mM phosphate buffer solution, 500 mM sodium chloride, 25 mM cholic acid, and 0.5% Triton X-100) was added to each tube to lyse the cells.
In each cell lysate, the total cholesterol was quantified by Amplex Red Cholesterol Assay Kit (Invitrogen), and the total protein was quantified by micro BCA Protein Assay Kit (Thermo Fisher Scientific). The total cellular cholesterol content is shown as total cholesterol content (nmol)/total protein content (mg).
Similar assays to Test Example 5 were performed except that the following samples were used in order to investigate how the type of degradable linkage in polyrotaxane influences to cholesterol removal from NPC1.
Similar assays to Test Example 5 were performed except that the following samples were used in order to investigate how the type of functional group introduced into cyclodextrins in polyrotaxane influences to cholesterol removal from NPC1.

NPC1 cells [4] = test: LC3 and p62 expressions by Western blotting (Test Example 9); type: cell-based, human
Method: The expressions of LC3 and p62 in the following cells were assayed by Western blotting as follows.
(§1) The cells were seeded on a 12-well plate (Nunc) (cell count: 1×10^5 cells/well), and incubated at 37° C. under a 5% CO2 atmosphere for one day, followed by the addition of the following samples and another 24-hour incubation.
(§2) After the culturing, the cells were washed with PBS, and then 150 μL of RIPA buffer (Wako) containing 1% protease inhibitor cocktail (Nacalai Tesque) and 1% Phosphatase inhibitor cocktail (Nacalai Tesque) was added, and the cells were lysed by shaking for 30 minutes. The cell lysate was centrifuged for 10 minutes at 15,000 rpm, and the supernatant was collected.
(§3) 10 μL of the supernatant and 2.5 μL of Laemmli buffer (Bio-Rad) were mixed, and applied to a 12% acrylamide gel. Then, electrophoresis was performed at 150∇ for 45 minutes. Then, proteins were transferred to a polyvinylidene fluoride (PVDF) membrane (Bio-Rad) using trans-blot Turbo Blotting System (Bio-Rad). Then, blocking was carried out with 5% skim milk solution (Wako) for an hour.
After the blocking treatment, PVDF membranes were treated at 4° C. for one day with an antibody against LC3 which is an indicator of autophagy (purchased from MBL), an antibody against p62/SQSTM1 which is a selective autophagy substrate (purchased from MBL), and an anti-β-actin antibody (Sigma-Aldrich), each diluted with 1% skim milk solution.
After three washes with PBS, the PVDF membranes were treated for 1 hour at room temperature with HRP-conjugated goat anti-rabbit IgG diluted in 1% skim milk solution.
After three washes with PBS, the PVDF membranes were treated with Pierce Western Blotting Substrate, and the images were taken with ImageQuant LAS 500 system (GE Healthcare Bioscience).
For comparison, the following cases were also examined in a similar manner: a case where NHDF cells were used and none of the samples were added; a case where NHDF cells were used and Bafilomycin A1 (hereinafter, referred to as “Baf A”) was added instead of the sample; a case where NPC1 cells were used and none of the samples were added; and a case where NPC1 cells were used and Baf A was added instead of the sample.
(§4) Each of the relative expression levels was determined from the intensity of Western blot band. […]

NPC1 cells [5] = test: Observation of autophagosomes by LC3 immunostaining (Test Example 8); type: cell-based, human; settings: 24 hours, HP-β-CD 10 mM, HEE-SS-PRX equivalent to 1 mM β-CD
Method: NPC1 cells were seeded on a 35 mm glass bottom dish (IWAKI) (cell count: 1.5×10^4 cells/dish), and incubated at 37° C. under a 5% CO2 atmosphere for one day, followed by the addition of the following samples and another 24-hour incubation.
After the culturing, the cells were fixed with 4% paraformaldehyde (Wako) for 10 minutes, treated with 50 μg/ml digitonin solution (Tokyo Chemical Industry) for 5 minutes to permeabilize the plasma membrane, and blocked with 1% BSA/PBS solution for 30 minutes.
The cells were then treated with Rabbit polyclonal anti-LC3 antibody (MBL) diluted to 1:200 with 1% BSA for one day at 4° C. After washing with PBS, the cells were stained with Alexa Fluor 488-conjugated goat anti-rabbit IgG (Abeam) (diluted to 1:1,000 with 1% BSA solution) for 30 minutes. After washing with PBS, the cells were observed by FluoView FV-10i (Olympus).
In FIG. 16E, in order from the left, the results on the following are shown: “the case where NHDF cells were used and none of the samples were added”, “the case where NPC1 cells were used and HP-β-CD was added as a sample (amount added: 10 mM)”, “the case where NPC1 cells were used and […] was added as a sample (amount added: amount equivalent to 1 mM concentration of β-CD on HEE-SS-PRX)”.

[6] = system: NPC disease patient-derived NPC2 mutant dermal fibroblasts; test: LC3-II expression by Western blotting (Test Example 9); type: cell-based, human; settings: NPC2-mutated fibroblasts; HP-β-CD 10 mM, HEE-SS-PRX 1 mM
Method: (3) NPC disease patient-derived NPC2 mutant dermal fibroblasts (obtained from Coriell Institute; number: GM18455)
as §1, §2
as §3, with “hour. […]” for “hour.”
as §4

[7] = system: Fabry disease patient-derived dermal fibroblasts; test: as above; type: cell-based, human; settings: HP-β-CD 10 mM, HEE-SS-PRX 1 mM
Method: (4) Fabry disease patient-derived dermal fibroblasts (obtained from Coriell Institute; number: GM00107)
as §1, §2
as §3, with “hour. […]” for “hour.”
as §4

[8] = system: GM1 gangliosidosis patient-derived dermal fibroblasts; test: as above; type: cell-based, human; settings: HP-β-CD 10 mM, HEE-SS-PRX 1 mM
Method: (5) GM1 gangliosidosis patient-derived dermal fibroblasts (obtained from Coriell Institute; number: GM03589)
as §1, §2
as §3, with “hour. […]” for “hour.”
as §4

NPC1 cells [9] = test: Observation of autolysosome formation, mRFP-EGFP-LC3 (Test Example 10); type: cell-based, human; settings: 24 hours, HP-β-CD 10 mM, HEE-SS-PRX equivalent to 1 mM cyclodextrin
NPC1 cells [10] = test: Fusion of autophagosomes and lysosomes, co-localization of mRFP-LC3 and LAMP1 (Test Example 11); type: cell-based, human; settings: 24 hours, HP-β-CD 10 mM, HEE-SS-PRX equivalent to 1 mM cyclodextrin
[11] = system: NPC disease patient-derived cells; settings: cited from earlier work
[12] = system: Npc1-deficient mice (Npc1−/− mice); settings: cited from earlier work
[13] = NHDF or NPC1 cells, Baf A added instead of the sample

Row | Molecule | Filipin fluorescence intensity (intracellular cholesterol) [1] | Amount of intracellular cholesterol accumulation (total cholesterol/total protein) [2] | Half maximal effective concentration (ED50) from dose-response curve for cholesterol accumulation (NPC1 cells [3]) [µM] | LC3 level (NPC1 cells [4]; [13]) | p62 level (NPC1 cells [4]; [13]) | Number of LC3-positive vesicles in a cell (NPC1 cells [5]) | Expression level of p62 (NPC1 cells [4]; NPC1 cells, 24 hours, 10 mM) | Expression level of LC3-II (NPC1 cells [4]; NPC1 cells, 24 hours, HP-β-CD 0.1 to 10 mM, HEE-SS-PRX 0.01 to 1 mM) | LC3-II level [6] | LC3-II level [7] | LC3-II level [8] | Number of autolysosomes (NPC1 cells [9]) | Number of autophagosomes (NPC1 cells [9]) | Co-localization rate of mRFP-LC3 and LAMP1 (NPC1 cells [10]) | Amount of cholesterol in cells [11] | Amount of cholesterol accumulated in each tissue [12] | Survival [12]
1 | COC[C@H]1O[C@@H]2O[C@H]3[C@H](O)[C@@H](OC)[C@@H](O[C@H]4[C@H](O)[C@@H](OC)[C@@H](O[C@H]5[C@H](O)[C@@H](OC)[C@@H](O[C@H]6[C@H](O)[C@@H](OC)[C@@H](O[C@H]7[C@H](O)[C@@H](OC)[C@@H](O[C@H]8[C@H](O)[C@@H](OC)[C@@H](O[C@H]1[C@H](O)[C@H]2OC)O[C@@H]8COC)O[C@@H]7COC)O[C@@H]6COC)O[C@@H]5COC)O[C@@H]4COC)O[C@@H]3COC [DM-β-CD, 2,6-dimethyl-β-cyclodextrin] | reduced | capable of removing more cholesterol than HP-β-CD | 230 | – | – | – | – | – | – | – | – | – | – | – | – | – | –
2 | CO/C1=C\C(C)=C\[C@@H](C)[C@@H](O)[C@@H](C)C/C(C)=C/C=C/[C@H](OC)[C@@H]([C@@H](C)[C@@H](O)[C@H](C)[C@@]2(O)C[C@@H](O)[C@H](C)[C@@H](C(C)C)O2)OC1=O [Baf A, Bafilomycin A1] | – | – | – | significant increases | significant increases | – | – | – | – | – | – | – | – | – | – | – | –
3 | Hydroxypropyl β-cyclodextrin [HP-β-CD] | – | subtle reduction of cholesterol | 2590 | – | – | further increased counts of LC3-positive vesicles | significantly increased | increased the expression of LC3-II in a concentration dependent manner | increase in LC3-II | increase in LC3-II | increase in LC3-II | no change in the number of autolysosomes | increase in the number of autophagosomes | low | the amount of cholesterol in cells decreases | decreases the amount of cholesterol accumulated in each tissue | extends the survival
